{"source": "ChEMBL document CHEMBL1759870", "about": "“Identification, structural properties and chelating capacity of miltipolone as a broad-spectrum inhibitor to cancer cells” (Eur J Med Chem, 2011)", "key": {"A549 [1]": {"test_system": "A549", "assay": "Antiproliferative activity against human A549 cells at 2 uM after 96 hrs by MTT assay in presence of manganese ion", "format": "functional, cell-based"}, "HepG2 [2]": {"test_system": "HepG2", "assay": "Antiproliferative activity against human HepG2 cells at 2 uM after 96 hrs by MTT assay in presence of ferrous ion", "format": "functional, cell-based"}, "A-375 [3]": {"test_system": "A-375", "assay": "Antiproliferative activity against human A375 cells at 2 uM after 96 hrs by MTT assay in presence of cobalt ion", "format": "functional, cell-based"}, "A549 [4]": {"test_system": "A549", "assay": "Antiproliferative activity against human A549 cells at 2 uM after 96 hrs by MTT assay in presence of 1 uM of ferrous ion", "format": "functional, cell-based"}, "HT-1080 [5]": {"test_system": "HT-1080", "assay": "Antiproliferative activity against human HT1080 cells at 2 uM after 96 hrs by MTT assay in presence of ferrous ion", "format": "functional, cell-based"}, "Jurkat [6]": {"test_system": "Jurkat", "assay": "Antiproliferative activity against human Jurkat cells at 2 uM after 96 hrs by MTT assay in presence of ferrous ion", "format": "functional, cell-based"}, "HUVEC": {"test_system": "HUVEC", "assay": "Antiproliferative activity against human HUVEC cells after 96 hrs by MTT assay", "format": "cell-based"}, "NCI-N87": {"test_system": "NCI-N87", "assay": "Antiproliferative activity against human NCI-N87 cells at 2 uM after 96 hrs by MTT assay in presence of manganese ion", "format": "functional, cell-based"}, "MCF7 [7]": {"test_system": "MCF7", "assay": "Antiproliferative activity against human MCF7 cells at 2 uM after 96 hrs by MTT assay in presence of cobalt ion", "format": "functional, cell-based"}, "HT-1080 [8]": {"test_system": "HT-1080", "assay": "Antiproliferative activity against human HT1080 cells after 96 hrs by MTT assay", "format": "functional, cell-based", "details": "HT-1080, 96 h"}, "HepG2 [9]": {"test_system": "HepG2", "assay": "Antiproliferative activity against human HepG2 cells at 2 uM after 96 hrs by MTT assay in presence of cobalt ion", "format": "functional, cell-based"}, "PANC-1 [10]": {"test_system": "PANC-1", "assay": "Antiproliferative activity against human PANC1 cells at 2 uM after 96 hrs by MTT assay in presence of ferric ion", "format": "functional, cell-based"}, "HepG2 [11]": {"test_system": "HepG2", "assay": "Antiproliferative activity against human HepG2 cells at 2 uM after 96 hrs by MTT assay in presence of 1 uM of ferrous ion", "format": "functional, cell-based"}, "MCF7 [12]": {"test_system": "MCF7", "assay": "Antiproliferative activity against human MCF7 cells at 2 uM after 96 hrs by MTT assay in presence of 1 uM of ferrous ion", "format": "functional, cell-based"}, "HepG2 [13]": {"test_system": "HepG2", "assay": "Antiproliferative activity against human HepG2 cells at 2 uM after 96 hrs by MTT assay in presence of zinc ion", "format": "functional, cell-based"}, "PANC-1 [14]": {"test_system": "PANC-1", "assay": "Antiproliferative activity against human PANC1 cells at 2 uM after 96 hrs by MTT assay in presence of cobalt ion", "format": "functional, cell-based"}, "HeLa": {"test_system": "HeLa", "assay": "Antiproliferative activity against human HeLa cells at 2 uM after 96 hrs by MTT assay in presence of 1 uM of ferrous ion", "format": "functional, cell-based"}, "[15]": {"assay": "Metal chelating activity of the compound assessed as manganese complex formation in doble-distiled water by UV-vis spectrometry", "format": "functional"}, "A549 [16]": {"test_system": "A549", "assay": "Antiproliferative activity against human A549 cells at 2 uM after 96 hrs by MTT assay in presence of cobalt ion", "format": "functional, cell-based"}, "A549 [17]": {"test_system": "A549", "assay": "Antiproliferative activity against human A549 cells after 96 hrs by MTT assay", "format": "functional, cell-based", "details": "A549, 96 h"}, "MCF7 [18]": {"test_system": "MCF7", "assay": "Antiproliferative activity against human MCF7 cells after 96 hrs by MTT assay", "format": "functional, cell-based", "details": "MCF7, 96 h"}, "Jurkat [19]": {"test_system": "Jurkat", "assay": "Antiproliferative activity against human Jurkat cells at 2 uM after 96 hrs by MTT assay in presence of ferric ion", "format": "functional, cell-based"}, "A-375 [20]": {"test_system": "A-375", "assay": "Antiproliferative activity against human A375 cells at 2 uM after 96 hrs by MTT assay in presence of manganese ion", "format": "functional, cell-based"}, "Jurkat [21]": {"test_system": "Jurkat", "assay": "Antiproliferative activity against human Jurkat cells at 2 uM after 96 hrs by MTT assay in presence of cobalt ion", "format": "functional, cell-based"}, "A-375 [22]": {"test_system": "A-375", "assay": "Antiproliferative activity against human A375 cells at 2 uM after 96 hrs by MTT assay in presence of 1 uM of ferrous ion", "format": "functional, cell-based"}, "Bel-7402": {"test_system": "Bel-7402", "assay": "Antiproliferative activity against human Bel7402 cells at 2 uM after 96 hrs by MTT assay in presence of 1 uM of ferrous ion", "format": "functional, cell-based"}, "HT-1080 [23]": {"test_system": "HT-1080", "assay": "Antiproliferative activity against human HT1080 cells at 2 uM after 96 hrs by MTT assay in presence of ferric ion", "format": "functional, cell-based"}}, "note": "Activity calls are given as the source filed them. No cut-off for these calls is given here."}
{"compound": "Cc1cc2c(cc(O)c1=O)[C@@]13CCCC(C)(C)[C@@H]1C[C@@H]2OC3", "note": "[MILTIPOLONE]", "values": [{"measurement": "Activity", "setting": "A549 [1]", "result": "Active"}, {"measurement": "Activity", "setting": "HepG2 [2]", "result": "inactive"}, {"measurement": "Activity", "setting": "A-375 [3]", "result": "Active"}, {"measurement": "Activity", "setting": "A549 [4]", "result": "inactive"}, {"measurement": "Activity", "setting": "HT-1080 [5]", "result": "inactive"}, {"measurement": "Activity", "setting": "Jurkat [6]", "result": "inactive"}, {"measurement": "IC50", "setting": "HUVEC", "result": 20000, "unit": "nM"}, {"measurement": "Activity", "setting": "NCI-N87", "result": "Active"}, {"measurement": "Activity", "setting": "MCF7 [7]", "result": "Active"}, {"measurement": "IC50", "setting": "HT-1080 [8]", "result": 1360, "unit": "nM"}, {"measurement": "Activity", "setting": "HepG2 [9]", "result": "Active"}, {"measurement": "Activity", "setting": "PANC-1 [10]", "result": "Active"}, {"measurement": "Activity", "setting": "HepG2 [11]", "result": "inactive"}, {"measurement": "Activity", "setting": "MCF7 [12]", "result": "inactive"}, {"measurement": "Activity", "setting": "HepG2 [13]", "result": "Active"}, {"measurement": "Activity", "setting": "PANC-1 [14]", "result": "Active"}, {"measurement": "Activity", "setting": "HeLa", "result": "inactive"}, {"measurement": "Activity", "setting": "[15]", "result": "Active"}, {"measurement": "Activity", "setting": "A549 [16]", "result": "Active"}, {"measurement": "IC50", "setting": "A549 [17]", "result": 1920, "unit": "nM"}, {"measurement": "IC50", "setting": "MCF7 [18]", "result": 2000, "unit": "nM"}, {"measurement": "Activity", "setting": "Jurkat [19]", "result": "Active"}, {"measurement": "Activity", "setting": "A-375 [20]", "result": "Active"}, {"measurement": "Activity", "setting": "Jurkat [21]", "result": "Active"}, {"measurement": "Activity", "setting": "A-375 [22]", "result": "inactive"}, {"measurement": "Activity", "setting": "Bel-7402", "result": "Active"}, {"measurement": "Activity", "setting": "HT-1080 [23]", "result": "Active"}]}
